From publication PMC5128008, “Antimicrobial activity and stability of the D-amino acid substituted derivatives of antimicrobial peptide polybia-MPI” (AMB Express, 2016)
Values after ≈ are worked out from the molar mass of the structure shown. Where a SMILES comes first, the peptide text is derived from it. Where no end group is shown, it is not given here. [ ]: non-standard residue; d: D form.

What was measured:
[1] = test system: C. albicans (ATCC 14053); assay: MFC, plating after MIC incubation; assay type: cell-based; details: 50 µl aliquots from MIC wells onto agar plates, overnight 35 °C, lowest concentration reducing CFUs at least 99.9%
Description: (§1) The minimal inhibitory concentration (MIC) of the peptides was measured in triplicate by the standard broth microdilution method (Peterson et al. [1980]; Wang et al. [2012]). In brief, bacteria/fungi were cultured overnight to mid-logarithmic-phase in Mueller–Hinton broth (MHB)/Sabouraud dextrose broth. The cultures were diluted to a final concentration of 2 × 10^4 cfu/ml in fresh Mueller–Hinton broth (MHB)/Sabouraud dextrose broth. Each well of 96-well propylene microtitre plates was filled with 100 µl cell suspension and 100 μl peptide solution of twofold diluted serially. And the final concentrations of peptide mixtures ranged from 1 to 256 µM. Controls were done without peptides. After 18 h of incubation at 37 °C (bacteria)/35 °C (fungi), the minimal inhibitory concentration (MIC) of the peptides was evaluated by visible turbidity in each well.
(§2) The minimal bactericidal concentrations (MBCs) and minimum fungicidal concentration (MFCs) of the peptides was determined at the end of the incubation period by transferring 50 µl aliquots onto agar plates and incubated overnight at 37 °C/35 °C. The MBC/MFC was set as the lowest concentration of the number of CFUs that reduced at least 99.9%.

[2] = test system: C. glabrata (ATCC 2001); assay: MFC, plating after MIC incubation; assay type: cell-based; details: 50 µl aliquots from MIC wells onto agar plates, overnight 35 °C, lowest concentration reducing CFUs at least 99.9%
Description: as §1, §2

[3] = test system: C. krusei (ATCC 6258); assay: MFC, plating after MIC incubation; assay type: cell-based; details: 50 µl aliquots from MIC wells onto agar plates, overnight 35 °C, lowest concentration reducing CFUs at least 99.9%
Description: as §1, §2

[4] = test system: C. parapsilosis (ATCC 22019); assay: MFC, plating after MIC incubation; assay type: cell-based; details: 50 µl aliquots from MIC wells onto agar plates, overnight 35 °C, lowest concentration reducing CFUs at least 99.9%
Description: as §1, §2

[5] = test system: C.tropicalis (ATCC 750); assay: MFC, plating after MIC incubation; assay type: cell-based; details: 50 µl aliquots from MIC wells onto agar plates, overnight 35 °C, lowest concentration reducing CFUs at least 99.9%
Description: as §1, §2

[6] = test system: trypsin; assay: RP-HPLC analysis of stability to trypsin; assay type: in vitro ADME; details: peptide 10 mM, trypsin 0.2 mg/ml, 37 °C, 0 and 360 min, TFA/acetonitrile precipitation, Fig. 7
Description: (§3) The stability of polybia-MPI and its analogues was assayed with trypsin or chymotrypsin in a volume ratio of 1:15 (peptide:trypsin) (Choi et al. [2013]; Hamamoto et al. [2002]; Molhoek et al. [2011]). Peptides at the concentration of 10 mM were incubated with trypsin or chymotrypsin (0.2 mg/ml) at 37 °C. 40 µl samples of the incubations were taken for the time of 0 and 360 min, respectively. Then, the samples were mixed with 80 µl of 15% trifluoroacetic acid (TFA) and 80 µl acetonitrile which incubated at 4 °C for at least 15 min to precipitate proteins. The supernatant was collected of each sample after centrifugation at 13,000 rpm for 10 min and were detected with reverse phase high performance liquid chromatography (RP-HPLC) analysis.
(§4) Fig. 7 HPLC analysis of the susceptibility of polybia-MPI, D-MPI and D-lys-MPI to trypsin and chymotrypsin. Peptides at the concentration of 10 mM were incubated with trypsin or chymotrypsin at 37 °C. At the determined time interval, samples were taken and mixed with trifluoroacetic acid (TFA) and acetonitrile to precipitate proteins, respectively. Then the samples were detected with reverse phase high performance liquid chromatography (RP-HPLC) analysis

[7] = test system: chymotrypsin; assay: RP-HPLC analysis of stability to chymotrypsin; assay type: in vitro ADME; details: peptide 10 mM, chymotrypsin 0.2 mg/ml, 37 °C, 0 and 360 min, TFA/acetonitrile precipitation, Fig. 7
Description: as §3, §4

[8] = test system: (ATCC 700603); details: ATCC 700603, 18 h
[9] = test system: (ATCC 700603); details: ATCC 700603, 18 h; remark: listed apart in the source
[10] = test system: all tested bacterial and fungal strains; assay: MIC, broth microdilution, summary over the panel; assay type: cell-based; details: summary of Table 1, "almost in the range"
Description: as §1

[11] = test system: trypsin; assay: Viability assay: antimicrobial activity against E. coli after trypsin treatment (Fig. 5); assay type: in vitro ADME; details: 37 °C, then E. coli at MIC, OD 600 nm
Description: Viability assay different concentration of trypsin (from 0.0002 to 2 mg/ml) incubated with peptides for 1 or 6 h at 37 °C, and the enzymatic activity was terminated by additional heat inactivation at 60 °C for 20 min. Then the trypsin treated peptides were incubated with Escherichia coli (ATCC25922) at the concentration of MIC in 96-wells microtiter plate overnight at 37 °C (Choi et al. [2013]). The growth inhibitory effect was determined by measuring the absorbance at 600 nm. Then we took 100 μl samples of 6 h from each well with the concentration of 0.2 mg/ml and plated onto MH broth ager after dilution. After overnight incubation at 37 °C, photos of plates were photographed and the colonies on the plate were counted.

[12] = test system: chymotrypsin; assay: Viability assay: antimicrobial activity against E. coli after chymotrypsin treatment (Fig. 5); assay type: in vitro ADME; details: 37 °C, then E. coli at MIC, OD 600 nm
[13] = test system: trypsin; assay: Radial diffusion assay after trypsin pre-incubation; assay type: in vitro ADME; details: pre-incubation 4 h 37 °C, plates 18–24 h 37 °C, Fig. 6
Description: (§5) The enzymatic stability of Polybia-MPI and its analogues was evaluated by a modification of the sensitive radial diffusion assay. The bacteria were cultured until the optical density at 600 nm (OD600) of an aliquot reached 0.5. One milliliter of the bacteria suspension was added to 100 ml of previously autoclaved, warm Mueller–Hinton agar (MHA)/Sabouraud dextrose agar. The medium were poured into layer of a 5 mm deep. Wells were performed with a sterile plastic bore of a 3-mm-diameter gel punch. Following the addition of 20 µl pre-incubated mixture of peptides and different concentrations of trypsin or chymotrypsin for 4 h into wells. The plates were incubated at 37 °C for 18 to 24 h. An equal volume of 20 µl mixture had no trypsin or chymotrypsin was used as the control. The size of the clear zones surrounding each well as indicators of the enzymatic stability of Polybia-MPI and its analogues.
(§6) Fig. 6 The viability of bacteria/fungi after incubation with peptides in the presence/absence of enzyme. Each peptide was pre-incubated with different concentrations of chymotrypsin (a) or trypsin (b) at 37 °C for 4 h. Then the samples were heat inactivated and poured into wells of plates. The plates were incubated at 37 °C for 18–24 h. Controls were without trypsin or chymotrypsin

[14] = test system: chymotrypsin; assay: Radial diffusion assay after chymotrypsin pre-incubation; assay type: in vitro ADME; details: pre-incubation 4 h 37 °C, plates 18–24 h 37 °C, Fig. 6
Description: as §5, §6

[15] = test system: trypsin; assay: Bactericidal activity after trypsin treatment, colony plates (Fig. 4); details: peptide with trypsin 4 h 37 °C, enzyme heat inactivated at 60 °C, E. coli co-incubated 3 h, plated 24 h
Description: To test the stability of polybia-MPI and D-MPI, first 1 mg/l of the peptides were incubated with trypsin and chymotrypsin for 4 h for degradation. After the enzyme was heat inactivated at 60 °C for 15 min, E. coli was added and co-incubated for 3 h. Then, the treated bacteria were coated to plate and incubated at 37 °C for 24 h.
Peptides were incubated with the same volume of PBS (Left) or trypsin (Right) at 37 °C for 4 h. The enzyme was heat inactivated at 60 °C for 20 min, and E. coli suspension was added and co-incubated for 3 h. Then, the mixtures were plated onto MH broth ager and incubated for 18–24 h. Pictures of each plate were photographed

Compound | MBC/MFC [1] | MBC/MFC [2] | MBC/MFC [3] | MBC/MFC [4] | MBC/MFC [5] | susceptibility to trypsin by HPLC profile [6] | susceptibility to chymotrypsin by HPLC profile [7] | MIC [8] | MBC/MFC [9] | MIC values, range over all tested bacterial and fungal strains [10] | antimicrobial activity after incubation with trypsin ([11]; 2 mg/ml trypsin, 6 h) | antimicrobial activity after incubation with chymotrypsin ([12]; 2 mg/ml chymotrypsin, 6 h) | inhibition zone diameters after incubation with trypsin ([13]; 2 mg/ml trypsin) | inhibition zone diameters after incubation with chymotrypsin ([14]; 2 mg/ml chymotrypsin) | E. coli colonies on plate after treatment with trypsin-incubated peptide [15] | trypsin concentration that totally inhibits the antimicrobial activity of the peptide ([11]; incubation 1 h) | chymotrypsin concentration that totally inhibits the antimicrobial activity of the peptide ([12]; incubation 1 h) | inhibition zone diameters after incubation with trypsin ([13]; 0.02–2 mg/ml trypsin) | inhibition zone diameters after incubation with chymotrypsin ([14]; 0.02–2 mg/ml chymotrypsin)
CC[C@H](C)[C@H](N)C(=O)N[C@@H](CC(=O)O)C(=O)N[C@@H](Cc1c[nH]c2ccccc12)C(=O)N[C@H](CCCCN)C(=O)N[C@H](CCCCN)C(=O)N[C@@H](CC(C)C)C(=O)N[C@@H](CC(C)C)C(=O)N[C@@H](CC(=O)O)C(=O)N[C@@H](C)C(=O)N[C@@H](C)C(=O)N[C@H](CCCCN)C(=O)N[C@@H](CCC(N)=O)C(=O)N[C@H](C(=O)N[C@@H](CC(C)C)C(N)=O)[C@@H](C)CC [D-lys-MPI] (H-IDW[dK][dK]LLDAA[dK]QIL-NH2) | >256 µM | 256 µM (≈ 423 µg/mL) | 256 µM (≈ 423 µg/mL) | >256 µM | 128 µM (≈ 212 µg/mL) | not or only partly degraded | not or only partly degraded | >256 µM | >256 µM | – | – | – | – | – | – | – | – | – | –
CC[C@@H](C)[C@@H](N)C(=O)N[C@H](CC(=O)O)C(=O)N[C@H](Cc1c[nH]c2ccccc12)C(=O)N[C@H](CCCCN)C(=O)N[C@H](CCCCN)C(=O)N[C@H](CC(C)C)C(=O)N[C@H](CC(C)C)C(=O)N[C@H](CC(=O)O)C(=O)N[C@H](C)C(=O)N[C@H](C)C(=O)N[C@H](CCCCN)C(=O)N[C@H](CCC(N)=O)C(=O)N[C@@H](C(=O)N[C@H](CC(C)C)C(N)=O)[C@H](C)CC [D-MPI] (H-[dI][dD][dW][dK][dK][dL][dL][dD][dA][dA][dK][dQ][dI][dL]-NH2) | 16 µM (≈ 26.5 µg/mL) | 32 µM (≈ 52.9 µg/mL) | 8 µM (≈ 13.2 µg/mL) | 32 µM (≈ 52.9 µg/mL) | 16 µM (≈ 26.5 µg/mL) | not or only partly degraded | not or only partly degraded | 64 µM (≈ 106 µg/mL) | 128 µM (≈ 212 µg/mL) | 8 to 64 µM | retained its antimicrobial activity | retained its antimicrobial activity | almost the same as control | almost the same as control | no colony | – | – | – | –
IDWKKLLDAAKQIL-NH2 [Polybia-MPI] | 16 µM | 32 µM | 16 µM | 128 µM | 32 µM | susceptible | susceptible | 64 µM | 256 µM | – | – | – | – | – | many colonies | 0.002 mg/mL | 0.002 mg/mL | decreased even disappeared | decreased even disappeared
